Data reported in paper PMC8887546, “Design and Synthesis of Brain Penetrant Glycopeptide Analogues of PACAP With Neuroprotective Potential for Traumatic Brain Injury and Parkinsonism” (Frontiers in drug discovery, 2022).

Legend:
Type in all cases: cell-based
[1] = biological target: T1, human VPAC1 receptor (Homo sapiens, UniProt P32241); test: cAMP stimulation in CHO cells expressing VPAC1; conditions: for Emax: CHO, read-out: VPAC1 Emax; for Receptor selectivity ratio VPAC1/PAC1: ratio of cAMP EC50 values; for EC50: read-out: VPAC1 EC50
T1 construct: expressed in transfected cells; host or cells: CHO cells (G418 selection)
T1 sequence (P32241 31-457): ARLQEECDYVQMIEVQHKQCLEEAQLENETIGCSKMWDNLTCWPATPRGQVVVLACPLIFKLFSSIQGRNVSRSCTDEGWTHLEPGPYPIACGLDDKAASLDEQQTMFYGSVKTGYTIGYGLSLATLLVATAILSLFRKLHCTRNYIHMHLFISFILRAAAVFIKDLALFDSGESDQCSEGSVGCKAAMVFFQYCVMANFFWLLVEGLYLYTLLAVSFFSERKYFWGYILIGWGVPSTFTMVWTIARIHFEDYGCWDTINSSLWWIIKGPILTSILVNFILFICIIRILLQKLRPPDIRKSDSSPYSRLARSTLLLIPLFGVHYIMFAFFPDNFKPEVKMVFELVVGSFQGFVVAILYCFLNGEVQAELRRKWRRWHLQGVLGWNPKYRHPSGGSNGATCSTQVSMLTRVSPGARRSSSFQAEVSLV

[2] = biological target: T2, human PAC1 receptor (Homo sapiens, UniProt P41586); test: cAMP stimulation in CHO cells expressing PAC1; conditions: for Emax: CHO
T2 construct: expressed in transfected cells; host or cells: CHO cells (G418 selection)
T2 sequence (P41586 21-468): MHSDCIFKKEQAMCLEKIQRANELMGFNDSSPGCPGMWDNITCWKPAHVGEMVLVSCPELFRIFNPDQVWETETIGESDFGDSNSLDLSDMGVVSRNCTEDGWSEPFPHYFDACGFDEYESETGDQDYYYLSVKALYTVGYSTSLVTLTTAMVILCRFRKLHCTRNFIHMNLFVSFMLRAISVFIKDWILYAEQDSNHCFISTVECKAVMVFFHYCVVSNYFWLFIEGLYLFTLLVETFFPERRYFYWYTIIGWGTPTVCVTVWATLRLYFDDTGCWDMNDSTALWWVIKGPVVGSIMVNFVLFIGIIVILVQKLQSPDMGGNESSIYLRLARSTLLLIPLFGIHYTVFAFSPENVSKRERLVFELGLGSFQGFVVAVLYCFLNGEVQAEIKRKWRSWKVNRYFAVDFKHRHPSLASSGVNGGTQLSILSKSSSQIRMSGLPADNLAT
In short: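 Serum-starved CHO cells expressing human receptors were pre-treated 20 min with 500 μM IBMX, then exposed to agonist concentration curves for 10 min in 500 μM IBMX. cAMP quantified by competition with bovine PKA and ^3H-cAMP (1 h, room temperature), scintillation read.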

[3] = biological target: T3, human VPAC2 receptor (Homo sapiens, UniProt P41587); test: cAMP stimulation in CHO cells expressing VPAC2; conditions: for Emax: CHO; for Receptor selectivity ratio VPAC2/PAC1 / Receptor selectivity ratio VPAC2/VPAC1: ratio of cAMP EC50 values
T3 construct: expressed in transfected cells; host or cells: CHO cells (G418 selection)
T3 sequence (P41587 24-438): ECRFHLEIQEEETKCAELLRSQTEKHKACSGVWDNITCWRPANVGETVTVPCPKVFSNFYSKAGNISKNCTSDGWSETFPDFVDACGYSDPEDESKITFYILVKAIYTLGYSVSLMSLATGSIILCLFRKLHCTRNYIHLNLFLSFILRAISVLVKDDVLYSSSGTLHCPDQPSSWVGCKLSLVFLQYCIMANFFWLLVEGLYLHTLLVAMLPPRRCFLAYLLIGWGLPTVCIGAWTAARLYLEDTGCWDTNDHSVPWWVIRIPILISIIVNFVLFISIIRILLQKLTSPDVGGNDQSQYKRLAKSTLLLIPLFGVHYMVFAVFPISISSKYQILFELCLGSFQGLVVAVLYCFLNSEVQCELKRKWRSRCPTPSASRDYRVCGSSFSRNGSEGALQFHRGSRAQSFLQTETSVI
Protocol: Briefly, human PAC1, VPAC1, and VPAC2 receptors expressed in CHO cells were used for all experiments. Cells were grown in 50:50 DMEM-F12 medium with 10% heat-inactivated fetal bovine serum, 1X penicillin-streptomycin supplement, and 500 μg/ml G418 (neomycin) to maintain selection (all from ThermoFisher) at 37°C with 5% CO2 atmosphere. For the cAMP assay, cells were seeded at 20,000 cells/well in a 96 well plate, recovered overnight, then serum starved for 4 h. The cells were then incubated with 500 μM IBMX for 20 min, followed by agonist concentration curves in 500 μM IBMX media for 10 min. The reaction was terminated, boiled, then collected, followed by competition with 7 μg of bovine protein kinase A (Sigma-Aldrich) and ∼1 pmol of ^3H-cAMP (PerkinElmer). The assay was incubated at room temp for 1 h, then collected onto GF/B filter plates and the data read using a MicroBeta2 scintillation counter (PerkinElmer).

| Emax [1] | Receptor selectivity ratio VPAC1/PAC1 [1] | EC50 [1] | EC50 [2] | Emax [2] | EC50 [3] | Emax [3] | Receptor selectivity ratio VPAC2/PAC1 [3] | Receptor selectivity ratio VPAC2/VPAC1 [3] | Selectivity for PAC1 over VPAC1 ([2]; from cAMP EC50 values) | Selectivity for PAC1 over VPAC2 ([2]; from cAMP EC50 values) | Structure (SMILES) |
| --- | --- | --- | --- | --- | --- | --- | --- | --- | --- | --- | --- |
| 96% | – | – | – | 92% | – | 116% | – | – | – | – | CCC[C@H](NC(=O)[C@H](CCC(N)=O)NC(=O)[C@H](CCCCN)NC(=O)[C@H](CCCNC(=N)N)NC(=O)[C@H](Cc1ccc(O)cc1)NC(=O)[C@H](CCCNC(=N)N)NC(=O)[C@H](CO)NC(=O)[C@H](Cc1ccc(O)cc1)NC(=O)[C@H](CO)NC(=O)[C@H](CC(=O)O)NC(=O)[C@@H](NC(=O)[C@H](Cc1ccccc1)NC(=O)[C@@H](NC(=O)CNC(=O)[C@H](CC(=O)O)NC(=O)[C@@H](CO)NC(=O)[C@@H](N)Cc1c[nH]cn1)[C@@H](C)CC)[C@@H](C)O)C(=O)N[C@@H](C)C(=O)N[C@H](C(=O)N[C@@H](CCCCN)C(=O)N[C@@H](CCCCN)C(=O)N[C@@H](Cc1ccc(O)cc1)C(=O)N[C@@H](CC(C)C)C(=O)N[C@@H](C)C(=O)N[C@@H](C)C(=O)N[C@H](C(=O)N[C@@H](CC(C)C)C(=O)N[C@@H](CO[C@@H]1O[C@H](CO)[C@@H](O[C@@H]2O[C@H](CO)[C@H](O)[C@H](O)[C@H]2O)[C@H](O)[C@H]1O)C(N)=O)C(C)C)C(C)C [CRA 3000-Lac] |
| 111% | 5.50 | 165 nM | 30 nM | 88% | 706 nM | 70% | 23.53 | 4.28 | ~5 fold | ~24 fold | CCC[C@H](NC(=O)[C@H](CCC(N)=O)NC(=O)[C@H](CCCCN)NC(=O)[C@H](CCCNC(=N)N)NC(=O)[C@H](Cc1ccc(O)cc1)NC(=O)[C@H](CCCNC(=N)N)NC(=O)[C@H](CO)NC(=O)[C@H](Cc1ccc(O)cc1)NC(=O)[C@H](CO)NC(=O)[C@H](CC(=O)O)NC(=O)[C@@H](NC(=O)[C@H](Cc1ccccc1)NC(=O)[C@@H](NC(=O)CN(C)C(=O)[C@H](CC(=O)O)NC(=O)[C@@H](CO)NC(=O)[C@@H](N)Cc1c[nH]cn1)[C@@H](C)CC)[C@@H](C)O)C(=O)N[C@@H](C)C(=O)N[C@H](C(=O)N[C@@H](CCCCN)C(=O)N[C@@H](CCCCN)C(=O)N[C@@H](Cc1ccc(O)cc1)C(=O)N[C@@H](CC(C)C)C(=O)N[C@@H](C)C(=O)N[C@@H](C)C(=O)N[C@H](C(=O)N[C@@H](CC(C)C)C(=O)N[C@@H](CO[C@@H]1O[C@H](CO)[C@@H](O)[C@H](O)[C@H]1O)C(N)=O)C(C)C)C(C)C [CRA 3007] |

Second part, the compound before the results:

| Structure (SMILES) | Emax [1] | Receptor selectivity ratio VPAC1/PAC1 [1] | EC50 [1] | EC50 [2] | Emax [2] | EC50 [3] | Emax [3] | Receptor selectivity ratio VPAC2/PAC1 [3] | Receptor selectivity ratio VPAC2/VPAC1 [3] | Selectivity for PAC1 over VPAC1 ([2]; from cAMP EC50 values) | Selectivity for PAC1 over VPAC2 ([2]; from cAMP EC50 values) |
| --- | --- | --- | --- | --- | --- | --- | --- | --- | --- | --- | --- |
| CCCC[C@H](NC(=O)CNC(=O)[C@H](CC(=O)O)NC(=O)[C@@H](CO)NC(=O)[C@@H](N)Cc1c[nH]cn1)C(=O)N[C@@H](Cc1ccccc1)C(=O)N[C@H](C(=O)N[C@@H](CC(=O)O)C(=O)N[C@@H](CO)C(=O)N[C@@H](Cc1ccc(O)cc1)C(=O)N[C@@H](CO)C(=O)N[C@@H](CCCNC(=N)N)C(=O)N[C@@H](Cc1ccc(O)cc1)C(=O)N[C@@H](CCCNC(=N)N)C(=O)N[C@@H](CCCCN)C(=O)N[C@@H](CCC(N)=O)C(=O)N[C@@H](CCC)C(=O)N[C@@H](C)C(=O)N[C@H](C(=O)N[C@@H](CCCCN)C(=O)N[C@@H](CCCCN)C(=O)N[C@@H](Cc1ccc(O)cc1)C(=O)N[C@@H](CC(C)C)C(=O)N[C@@H](C)C(=O)N[C@@H](C)C(=O)N[C@H](C(=O)N[C@@H](CC(C)C)C(=O)N[C@@H](CO[C@@H]1O[C@H](CO)[C@@H](O)[C@H](O)[C@H]1O)C(N)=O)C(C)C)C(C)C)[C@@H](C)O [CRA3017] | 94% | 0.45 | 4.8 nM | 10.6 nM | 95% | 189 nM | 109% | 17.83 | 39.38 | – | – |
| CCCC[C@H](NC(=O)CN(C)C(=O)[C@H](CC(=O)O)NC(=O)[C@@H](CO)NC(=O)[C@@H](N)Cc1c[nH]cn1)C(=O)N[C@@H](Cc1ccccc1)C(=O)N[C@H](C(=O)N[C@@H](CC(=O)O)C(=O)N[C@@H](CO)C(=O)N[C@@H](Cc1ccc(O)cc1)C(=O)N[C@@H](CO)C(=O)N[C@@H](CCCNC(=N)N)C(=O)N[C@@H](Cc1ccc(O)cc1)C(=O)N[C@@H](CCCNC(=N)N)C(=O)N[C@@H](CCCCN)C(=O)N[C@@H](CCC(N)=O)C(=O)N[C@@H](CCC)C(=O)N[C@@H](C)C(=O)N[C@H](C(=O)N[C@@H](CCCCN)C(=O)N[C@@H](CCCCN)C(=O)N[C@@H](Cc1ccc(O)cc1)C(=O)N[C@@H](CC(C)C)C(=O)N[C@@H](C)C(=O)N[C@@H](C)C(=O)N[C@H](C(=O)N[C@@H](CC(C)C)C(=O)N[C@@H](CO[C@@H]1O[C@H](CO)[C@@H](O)[C@H](O)[C@H]1O)C(N)=O)C(C)C)C(C)C)[C@@H](C)O [CRA3018] | 104% | – | – | – | 85% | – | 112% | – | – | – | – |
| CCCC[C@@H](NC(=O)CNC(=O)[C@H](CC(=O)O)NC(=O)[C@@H](CO)NC(=O)[C@@H](N)Cc1c[nH]cn1)C(=O)N[C@@H](Cc1ccccc1)C(=O)N[C@H](C(=O)N[C@@H](CC(=O)O)C(=O)N[C@@H](CO)C(=O)N[C@@H](Cc1ccc(O)cc1)C(=O)N[C@@H](CO)C(=O)N[C@@H](CCCNC(=N)N)C(=O)N[C@@H](Cc1ccc(O)cc1)C(=O)N[C@@H](CCCNC(=N)N)C(=O)N[C@@H](CCCCN)C(=O)N[C@@H](CCC(N)=O)C(=O)N[C@@H](CCC)C(=O)N[C@@H](C)C(=O)N[C@H](C(=O)N[C@@H](CCCCN)C(=O)N[C@@H](CCCCN)C(=O)N[C@@H](Cc1ccc(O)cc1)C(=O)N[C@@H](CC(C)C)C(=O)N[C@@H](C)C(=O)N[C@@H](C)C(=O)N[C@H](C(=O)N[C@@H](CC(C)C)C(=O)N[C@@H](CO[C@@H]1O[C@H](CO)[C@@H](O)[C@H](O)[C@H]1O)C(N)=O)C(C)C)C(C)C)[C@@H](C)O [CRA3019] | 72% | 0.77 | 649 nM | 847 nM | 65% | > 2500 nM | 74% | – | – | – | – |
| CCC[C@H](NC(=O)[C@H](CCC(N)=O)NC(=O)[C@H](CCCCN)NC(=O)[C@H](CCCNC(=N)N)NC(=O)[C@H](Cc1ccc(O)cc1)NC(=O)[C@H](CCCNC(=N)N)NC(=O)[C@H](CO)NC(=O)[C@H](Cc1ccc(O)cc1)NC(=O)[C@H](CO)NC(=O)[C@H](CC(=O)O)NC(=O)[C@@H](NC(=O)[C@H](Cc1ccccc1)NC(=O)[C@@H](NC(=O)[C@@H](C)NC(=O)[C@H](CC(=O)O)NC(=O)[C@@H](CO)NC(=O)[C@@H](N)Cc1c[nH]cn1)[C@@H](C)CC)[C@@H](C)O)C(=O)N[C@@H](C)C(=O)N[C@H](C(=O)N[C@@H](CCCCN)C(=O)N[C@@H](CCCCN)C(=O)N[C@@H](Cc1ccc(O)cc1)C(=O)N[C@@H](CC(C)C)C(=O)N[C@@H](C)C(=O)N[C@@H](C)C(=O)N[C@H](C(=O)N[C@@H](CC(C)C)C(=O)N[C@@H](CO[C@@H]1O[C@H](CO)[C@@H](O)[C@H](O)[C@H]1O)C(N)=O)C(C)C)C(C)C [CRA3021] | 103% | 1.17 | 37.7 nM | 32.3 nM | 90% | 517 nM | 74% | 16.01 | 13.71 | – | – |
